Where “and” joins values, the source holds several entries; their conditions need not be identical. Identical values can stand only once.
Experiments:
[1] = biological target: T1, HiBiT-SOCS2 fusion in HeLa cells (Homo sapiens, UniProt O14508); assay: Split-NanoLuc CETSA, live-cell mode; type: cell-based; set-up: Produrg CETSA screening, raw signal: reference not given here; details: for Produrg CETSA screening, raw signal: 50uM 20hrs; for ΔT / ΔT, individual replicates n1-n3: Prodrug screen CETSA; for ΔT: live HeLa cells, 50 μM, 20 h, Mean n = 3; for ΔT, individual replicates n1-n3: single replicates
T1 construct: encoding SOCS2 (32–198) in pBiT3.1-N expression vector; expressed in transfected cells; host or cells: HeLa
Description: One of the challenges with small-molecule binders displaying on-target activity with recombinant proteins, is to translate their utility to a cellular context. […] One of the advantages of CETSA is that target engagement can be monitored without the need for the development of a cell-permeable tracer molecule.
We utilized CETSA in a live-cell mode to evaluate the efficacy and rank the different prodrugs. We treated live HeLa cells with 50 μM compound (prodrugs) for 20 h and monitored Tagg shift as a proxy for the combo of prodrug permeability and unmasking (Fig. 4d). […] The observation could be because the POM group unmasking requires only esterase unlike the reliance of compounds 21–23 on esterase and phosphoramidase for unmasking an aryloxy phosphoramidate group.
N-terminal HiBiT-SOCS2 fusion was generated by encoding SOCS2 (32–198) in pBiT3.1-N expression vector (Promega). The transfection and target engagement assay were performed by modifying a NanoLuc target engagement protocol (Promega) with some small modifications. Briefly, HiBiT-SOCS2 fusion construct was transfected into HeLa cells using FuGENE HD (Promega) according to the manufacturer’s protocol. HiBiT-SOCS2 fusion construct was diluted into Transfection Carrier DNA (Promega) at a mass ratio of 1:100 or 1:10 for permeabilised and live-cell CETSA respectively. FuGENE HD was added at a ratio of 1:3 (μg DNA: μL FuGENE HD). 1 part (vol) of FuGENE HD complexes thus formed were combined with 20 parts (vol) of HeLa cells suspended at a density of 2 × 10^5 cells/mL, followed by incubation in a humidified, 37 °C + 5% CO2 incubator. After 20 h of incubation HeLa cells were detached and resuspended at a density of 2.5 × 10^5 cells/mL in Opti-MEM media without serum or phenol red but supplemented with protease inhibitor cocktail (Roche). Compounds stocks were added to cell suspension to maintain a final DMSO concentration of 1%. For the permeabilised assay format, 96-well PCR plates (Thermo) were pre-treated with digitonin to have a final well concentration of 50 μg/ml. 50 μl Opti-MEM cell suspension was then aliquoted to each well of the 96-well plate. The plates are then covered with microporous tape sheet (Qiagen) prior to incubation in a humidified, 37 °C + 5% CO2 incubator. Post-incubation we heat the PCR plates in 16-point temperature (split across two runs) curve spanning degrees 40-72 °C temperature span (CFX96 Touch Real-Time PCR Detection System, BioRad). The thermal cycler block was allowed to rise to the designated temperatures prior to placement of the PCR plates into the heating block and heat treatment for 3 min. After incubating the plates at room temperature for over 3 min, 50 μl of the Nano-Glo HiBiT Lytic mix (Promega) was added to each well. Samples were mixed by pipetting and placing the plate on an orbital shaker (600 rpm) for 5 min. 20 μl of the samples (in triplicates) were transferred to a AlphaPlate-384 plate (Perkin Elmer). Luminescence was recorded with GloMax Discover Microplate Reader (Promega). To generate apparent Tagg curves, the data is first converted to percent stabilized by relating the observed luminescence to the luminescence of the lowest temperature (40 °C) for that given sample. Data are then fitted to obtain apparent Tagg values using the Boltzmann Sigmoid equation using Graphpad Prism 9.

SBC2 = biological target: T2, SBC2 (Homo sapiens, UniProt O14508); assay: Covalent fluorescence polarization (FP) probe displacement assay; type: binding; details: SBC2 titration with 10 nM probe; read-out: KD of fluorescent probe measured with FP
T2 construct: SOCS2 (amino acids 32–198); His6 (N, cleaved yes); made in house; host or cells: E. coli BL21(DE3)
Source text: With the specific covalent modification of Cys111 established, we decided to fully characterize MN551 as a covalent SOCS2 inhibitor. […] (Fig. 2g, h, Supplementary Fig. 9). Due to the covalent nature of the competing inhibitor, a time-dependent reduction in the fraction of protein-bound probe is observed. […] This value illustrates reasonable specificity for a covalent inhibitor, with nonetheless scope for future optimization. In addition to characterizing the kinetic covalency parameters, we have also assessed the stability of the MN551 by monitoring its reactivity (half-life >70 min) with reduced glutathione (GSH) (Supplementary Fig. 10)[35].
To monitor the SBC2-ligand binding kinetics we designed a fluorescein-labeled small-molecule probe - compound 26. The fluorescence polarization (anisotropy) of a threefold serial dilution of 50 µM SBC2 in 10 nM of the probe in 100 mM HEPES pH 7.5, 50 mM NaCl, 0.5 mM TCEP, 2% DMSO was measured to determine the KL (Supplementary Fig. 9A) (BMG Labtech PHERAstar – firmware v1.33). Protein titration and the curves were fitted using GraphPad Prism 9, using one-site fitting models to determine the probe binding constant, KL. Samples were run in triplicate in 384 well plates, using a total volume per well of 16 μL. The bound fraction of the probe is measure using the equation:1 Fb=Af−A/Af−Ab Where,
A time-dependent reduction in probe anisotropy were measured for a 2-fold serial dilution of […] compound MN551 in 10 nM probe +300 μM SBC2. To determine the initial reversible binding affinity, the initial bound fraction of the probe at time = 0, Fbo (the y-intercept in Fb v/s Time plot, Supplementary Fig. 9B) was plotted against MN551 concentration, and the obtained IC50 is then converted to Ki (Supplementary Fig. 9C)[17]. The slope from Fb versus time graph when divided by Fbo gives rate of covalency, kobs. A plot of kobs v/s MN551 concentration using Michaelis–Menten model of GraphPad Prism 9, provides the parameters kinact (maximum potential rate of inactivation) and KI (concentration of MN551 at which kobs = kinact/2) (Supplementary Fig. 9D, E).
The observed first-order rate constant, kobs is related to KI and kinact by the equation:2 kobs=kinactI/KI+I
At [I]«[KI] the above equation is converted to3 […]
The slope from the plot of kobs against concentration of MN551 gives us the covalent efficiency parameter kinact/KI (Supp Fig. 9F)[30],[33].

T1 sequence (O14508 32-198): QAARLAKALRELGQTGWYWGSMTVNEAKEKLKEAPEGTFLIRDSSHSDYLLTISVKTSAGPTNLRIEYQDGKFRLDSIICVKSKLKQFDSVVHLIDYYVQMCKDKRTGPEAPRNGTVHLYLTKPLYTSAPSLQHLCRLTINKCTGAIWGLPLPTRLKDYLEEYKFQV
T1 sequence (Q15370 whole entry, further chain, the tested form may be a part): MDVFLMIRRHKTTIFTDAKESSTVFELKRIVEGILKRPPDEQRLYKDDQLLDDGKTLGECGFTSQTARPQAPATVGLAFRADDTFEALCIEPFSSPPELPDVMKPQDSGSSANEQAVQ
T1 sequence (Q15369 whole entry, further chain, the tested form may be a part): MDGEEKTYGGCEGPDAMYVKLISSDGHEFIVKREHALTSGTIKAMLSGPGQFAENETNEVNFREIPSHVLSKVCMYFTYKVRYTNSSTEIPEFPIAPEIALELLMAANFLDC
T2 sequence (O14508 32-198): as the sequence (O14508 32-198) above
T2 sequence (Q15370 1-104 partner limits assumed): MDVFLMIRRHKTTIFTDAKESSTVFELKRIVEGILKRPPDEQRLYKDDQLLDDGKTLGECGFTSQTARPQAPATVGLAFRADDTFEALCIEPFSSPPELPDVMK
T2 sequence (Q15369 17-112 partner limits assumed): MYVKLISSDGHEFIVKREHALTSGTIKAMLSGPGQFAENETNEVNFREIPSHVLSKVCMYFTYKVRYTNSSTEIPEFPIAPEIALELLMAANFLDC

## COC(=O)[C@H](C)NP(=O)(Oc1ccc(C[C@H](NC(=O)Cc2ccc(F)cc2)C(=O)NCc2cccc(NC(=O)CCl)c2)cc1)Oc1cccc2ccccc12 (stereo partly drawn) [Compound 21]
[1]; n=1, temperature point 4 of 16, temperature not given
  Produrg CETSA screening, raw signal: 91803 and 91466 and 172287
[1]; n=1, temperature point 5 of 16, temperature not given
  Produrg CETSA screening, raw signal: 75745 and 107243 and 102225
[1]; n=1, temperature point 6 of 16, temperature not given
  Produrg CETSA screening, raw signal: 90752 and 132144 and 123125
[1]; n=1, temperature point 7 of 16, temperature not given
  Produrg CETSA screening, raw signal: 129001 and 137550 and 230259
[1]; n=1, temperature point 8 of 16, temperature not given
  Produrg CETSA screening, raw signal: 138976 and 169925 and 177765
[1]; n=1, temperature point 9 of 16, temperature not given
  Produrg CETSA screening, raw signal: 198178 and 192764 and 223087
[1]; n=1, temperature point 10 of 16, temperature not given
  Produrg CETSA screening, raw signal: 187698 and 251675 and 298741
[1]; n=1, temperature point 11 of 16, temperature not given
  Produrg CETSA screening, raw signal: 267213 and 290800 and 310548
[1]; n=1, temperature point 12 of 16, temperature not given
  Produrg CETSA screening, raw signal: 360938 and 373247 and 422856
[1]; n=1, temperature point 13 of 16, temperature not given
  Produrg CETSA screening, raw signal: 434129 and 461596 and 480477
[1]; n=1, temperature point 14 of 16, temperature not given
  Produrg CETSA screening, raw signal: 437890 and 471533 and 565224
[1]; n=1, temperature point 15 of 16, temperature not given
  Produrg CETSA screening, raw signal: 465739 and 467737 and 561619
[1]; n=1, temperature point 16 of 16, temperature not given
  Produrg CETSA screening, raw signal: 441792 and 461249 and 531619
[1]; n=2, temperature point 1 of 16, temperature not given
  Produrg CETSA screening, raw signal: 100426 and 115227 and 145975
[1]; n=2, temperature point 2 of 16, temperature not given
  Produrg CETSA screening, raw signal: 100401 and 85507 and 140649
[1]; n=2, temperature point 3 of 16, temperature not given
  Produrg CETSA screening, raw signal: 123706 and 103110 and 202648
[1]; n=2, temperature point 4 of 16, temperature not given
  Produrg CETSA screening, raw signal: 103160 and 69960 and 120366
[1]; n=2, temperature point 5 of 16, temperature not given
  Produrg CETSA screening, raw signal: 75996 and 86411 and 132074
[1]; n=2, temperature point 6 of 16, temperature not given
  Produrg CETSA screening, raw signal: 123683 and 120963 and 144901
[1]; n=2, temperature point 7 of 16, temperature not given
  Produrg CETSA screening, raw signal: 143611 and 177701 and 227556
[1]; n=2, temperature point 8 of 16, temperature not given
  Produrg CETSA screening, raw signal: 172997 and 193471 and 214613
[1]; n=2, temperature point 9 of 16, temperature not given
  Produrg CETSA screening, raw signal: 198669 and 236779 and 246686
[1]; n=2, temperature point 10 of 16, temperature not given
  Produrg CETSA screening, raw signal: 209139 and 261273 and 295556
[1]; n=2, temperature point 11 of 16, temperature not given
  Produrg CETSA screening, raw signal: 246514 and 287579 and 323688
[1]; n=2, temperature point 12 of 16, temperature not given
  Produrg CETSA screening, raw signal: 393463 and 428191 and 449673
[1]; n=2, temperature point 13 of 16, temperature not given
  Produrg CETSA screening, raw signal: 441856 and 476194 and 509704
[1]; n=2, temperature point 14 of 16, temperature not given
  Produrg CETSA screening, raw signal: 497788 and 532165 and 547547
[1]; n=2, temperature point 15 of 16, temperature not given
  Produrg CETSA screening, raw signal: 523691 and 513819 and 551344
[1]; n=2, temperature point 16 of 16, temperature not given
  Produrg CETSA screening, raw signal: 478273 and 472552 and 530261
[1]; n=3, Temp, 0C 62.3
  Produrg CETSA screening, raw signal: 20167
[1]; n=3, Temp, 0C 66.1
  Produrg CETSA screening, raw signal: 12666 and 19260 and 24872
[1]; n=3, Temp, 0C 69.3
  Produrg CETSA screening, raw signal: 18005 and 19840 and 24313
[1]; n=3, Temp, 0C 71.1
  Produrg CETSA screening, raw signal: 19926 and 19187 and 22421
[1]; n=3, Temp, 0C 72
  Produrg CETSA screening, raw signal: 14765 and 18884 and 20941
[1]
  ΔT: 0.60 oC
  ΔT, individual replicates n1-n3: 1.03 oC and -0.02 oC and 0.80 oC

## Cc1cc(CNC(=O)[C@H](Cc2ccc(OP(=O)(O)O)cc2)NC(=O)Cc2ccc(F)cc2OCCNC(=S)Nc2ccc3c(c2)C(=O)OC32c3ccc(O)cc3Oc3cc(O)ccc32)ccc1Cl [Compound 26]
SBC2
  Kd: 77.6 nM

## CC(C)OC(=O)[C@H](C)NP(=O)(Oc1ccc(C[C@H](NC(=O)Cc2ccc(F)cc2)C(=O)NCc2cccc(NC(=O)CCl)c2)cc1)Oc1cccc2ccccc12 (stereo partly drawn) [Compound 22]
[1]
  ΔT: 2.37 oC
  ΔT, individual replicates n1-n3: 2.11 oC and 3.40 oC and 1.59 oC

— publication PMC10564737, “Structure-based design of a phosphotyrosine-masked covalent ligand targeting the E3 ligase SOCS2” (Nature Communications, 2023)
